Data published in patent US20060052375A1, “Bis-alkylbenzylamines” (priority 2002, published 2006).

Assays:
Type in all cases: cell-based
[1] = test system: Escherichia coli ATCC 10536; test: Minimum inhibiting concentration (MIC value) in microtitre plates; parameters: unit not given here; conditions: serial dilution 1:2, 48 hours at 37° C., <20% growth compared with growth control
Experimental: (§1) Determination of the Minimum Inhibiting Concentration (MIC Value) in Microtitre Plates Nutrient Medium: Casein/soybean flour peptone bouillon for the preparation of the precultures of the test bacteria and yeast. Examples of Test Organisms: Bacteria: Escherichia coli ATCC 10536 (=EC) Staphylococcus aureus ATCC 6538(=SA) Procedure: The test substances are predissolved in dimethyl sulfoxide (DMSO) and tested in a serial dilution of 1:2. Bacteria and yeast are cultured overnight in CASO bouillon. All test organism suspensions are adjusted to an organism count of 1-5×10^6 CFU/ml with 0.85% sodium chloride solution. The test substances are prepipetted into microtitre plates in an amount of 8 μl per well. The previously adjusted organism suspensions are diluted 1:100 in CASO bouillon and added to the test substances in an amount of 192 μl per well. The test batches are incubated for 48 hours at 37° C. After incubation, the growth is determined by reference to the turbidity of the test batches (optical density) at 620 nm in a microplate reader. The minimum inhibiting concentration (MIC value) is the concentration of substance at which an appreciable inhibition of the growth (<20% growth compared with the growth control) of the test organisms is ascertained. Three microtitre plates are used for each test organism and substance concentration.

[2] = test system: Staphylococcus aureus ATCC 6538; test: as above; parameters: unit not given here; conditions: serial dilution 1:2, 48 hours at 37° C., <20% growth compared with growth control
Experimental: as §1

[3] = test system: Corynebacterium xerosis ATCC 373; test: MIC in agar incorporation test; conditions: GC purity 88%
Experimental: (§2) Determination of the Minimum Inhibiting Concentration of the Compound of Formula (3) in Respect of a Wider Spectrum of Organisms The compound of formula (3) (see Table 1; GC purity 88%; prepared in accordance with Example 1) is tested on the microorganisms indicated in Table 3. The test for determining the minimum inhibiting concentration is effected in an agar incorporation test.

[4] = test system: Klebsiella pneumoniae ATCC 4352; test: MIC in agar incorporation test; conditions: GC purity 88%
Experimental: as §2

[5] = test system: Escherichia coli ATCC 10536; test: MIC in agar incorporation test; conditions: GC purity 88%
Experimental: as §2

[6] = test system: Proteus vulgaris ATCC 6896; test: MIC in agar incorporation test; conditions: GC purity 88%
Experimental: as §2

[7] = test system: C. minutissimum ATCC 23348; test: MIC in agar incorporation test; conditions: GC purity 88%
Experimental: as §2

[8] = test system: Staphylococcus aureus ATCC 9144; test: MIC in agar incorporation test; conditions: GC purity 88%
Experimental: as §2

[9] = test system: Aspergillus niger ATCC 6275; test: MIC in agar incorporation test; conditions: GC purity 88%
Experimental: as §2

[10] = test system: Salmonella choleraesuis ATCC 9184; test: MIC in agar incorporation test; conditions: GC purity 88%
Experimental: as §2

[11] = test system: Staphylococcus epidermidis ATCC 12228; test: MIC in agar incorporation test; conditions: GC purity 88%
Experimental: as §2

[12] = test system: Escherichia coli NCTC 8196; test: MIC in agar incorporation test; conditions: GC purity 88%
Experimental: as §2

[13] = test system: Candida albicans ATCC 10231; test: MIC in agar incorporation test; conditions: GC purity 88%
Experimental: as §2

[14] = test system: Staphylococcus aureus ATCC 6538; test: MIC in agar incorporation test; conditions: GC purity 88%
Experimental: as §2

[15] = test system: Propionibacterium acnes ATCC 6919; test: MIC in agar incorporation test; conditions: GC purity 88%
Experimental: as §2

[16] = test system: Pseudomonas aeruginosa ATCC 15442; test: MIC in agar incorporation test; conditions: GC purity 88%
Experimental: as §2

MIC value ATCC 10536 [1]	MIC value ATCC 6538 [2]	SMILES	also measured
120	>120	CCCCN(C)Cc1ccc(-c2ccc(CN(C)CCCC)cc2)cc1 [Compound of formula 21]	
7.5	7.5	CCCCC(CC)CNCc1ccc(-c2ccc(CNCC(CC)CCCC)cc2)cc1 (centres unmarked) [Compound of formula 13]	
60	30	CC(C)CC(C)NCc1ccc(-c2ccc(CNC(C)CC(C)C)cc2)cc1 (centres unmarked) [Compound of formula 12]	
30	30	CCCCCCCCCCCCCNCc1ccc(-c2ccc(CNCCCCCCCCCCCCC)cc2)cc1 [Compound of formula 6]	
>120	>120	CC(=O)N1CCN(Cc2ccc(-c3ccc(CN4CCN(C(C)=O)CC4)cc3)cc2)CC1 [Compound of formula 19]	
>120	>120	c1coc(CNCc2ccc(-c3ccc(CNCc4ccco4)cc3)cc2)c1 [Compound of formula 20]	
>120	15	CCN(CC)Cc1ccc(-c2ccc(CN(CC)CC)cc2)cc1 [Compound of formula 23]	
30	15	CCCC(C)NCc1ccc(-c2ccc(CNC(C)CCC)cc2)cc1 (centres unmarked) [Compound of formula 10]	
30	15	CC(C)NCc1ccc(-c2ccc(CNC(C)C)cc2)cc1 [Compound of formula 7]	
15	15	CCCNCc1ccc(-c2ccc(CNCCC)cc2)cc1 [Compound of formula 2]	
30	30	CCCCCCCCCCCNCc1ccc(-c2ccc(CNCCCCCCCCCCC)cc2)cc1 [Compound of formula 5]	
60	15	CCC(C)NCc1ccc(-c2ccc(CNC(C)CC)cc2)cc1 (centres unmarked) [Compound of formula 8]	
120	120	c1ccc(CNCc2ccc(-c3ccc(CNCc4ccccc4)cc3)cc2)cc1 [Compound of formula 15]	
30	30	CC(C)CCNCc1ccc(-c2ccc(CNCCC(C)C)cc2)cc1 [Compound of formula 11]	
>120	>120	CN(CCO)Cc1ccc(-c2ccc(CN(C)CCO)cc2)cc1 [Compound of formula 30]	
>120	>120	c1ccc(CN(Cc2ccccc2)Cc2ccc(-c3ccc(CN(Cc4ccccc4)Cc4ccccc4)cc3)cc2)cc1 [Compound of formula 29]	
>120	60	CC(C)(C)NCc1ccc(-c2ccc(CNC(C)(C)C)cc2)cc1 [Compound of formula 9]	
>120	>120	CCCCN(CCCC)Cc1ccc(-c2ccc(CN(CCCC)CCCC)cc2)cc1 [Compound of formula 25]	
<3.75	7.5	CCCCCCCCNCc1ccc(-c2ccc(CNCCCCCCCC)cc2)cc1 [Compound of formula 3, octyl-(4′-octylaminomethyl-biphenyl-4-ylmethyl)-amine]	MIC [3]: 1.88; MIC [4]: 7.5; MIC [5]: 3.75; MIC [6]: >120; MIC [7]: 1.88; MIC [8]: 3.75; MIC [9]: >120; MIC [10]: 7.5; MIC [11]: 3.75; MIC [12]: 3.75; MIC [13]: >120; MIC [14]: 3.75; MIC [15]: 3.75; MIC [16]: >120
>120	15	CCCCCCN(CCCCCC)Cc1ccc(-c2ccc(CN(CCCCCC)CCCCCC)cc2)cc1 [Compound of formula 27]	
15	30	CCCCCCCCCCNCc1ccc(-c2ccc(CNCCCCCCCCCC)cc2)cc1 [Compound of formula 4]	
120	60	c1cc(-c2ccc(CN3CCCCCC3)cc2)ccc1CN1CCCCCC1 [Compound of formula 31]	
>120	>120	c1cc(-c2ccc(CN3CCOCC3)cc2)ccc1CN1CCOCC1 [Compound of formula 18]	
15	15	c1ccc(CCNCc2ccc(-c3ccc(CNCCc4ccccc4)cc3)cc2)cc1 [Compound of formula 17]	
120	60	c1cc(-c2ccc(CNC3CCCCC3)cc2)ccc1CNC1CCCCC1 [Compound of formula 16]	
>120	>120	CCCN(CCC)Cc1ccc(-c2ccc(CN(CCC)CCC)cc2)cc1 [Compound of formula 24]	
15	7.5	CCCCCCCCN(CCCCCCCC)Cc1ccc(-c2ccc(CN(CCCCCCCC)CCCCCCCC)cc2)cc1 [Compound of formula 28]	
>120	30	COCC(C)NCc1ccc(-c2ccc(CNC(C)COC)cc2)cc1 (centres unmarked) [Compound of formula 14]	
15	15	CCCCCCCCCCCCN(C)Cc1ccc(-c2ccc(CN(C)CCCCCCCCCCCC)cc2)cc1 [Compound of formula 22]	
>120	30	CCCCCN(CCCCC)Cc1ccc(-c2ccc(CN(CCCCC)CCCCC)cc2)cc1 [Compound of formula 26]	
